Earlier results in patent US8182834B2, “Ternary non-lamellar lipid compositions” (Camurus AB, priority 2004, dated 2012).

In the case of `CCCCCCCC/C=C\CCCCCCCC(=O)OCC(O)CO` (centres unmarked) [glycerol monooleate], the equilibrium water solubility (room temperature) is given as ~10^−7 M and the Equilibrium solubility concentration (water, 25 ° C.) is given as ~10^−7 M.
